For 14 compounds, T/C results are on record in PubChem BioAssay AID328 (DTP/NCI, 2004).

Inconclusive results and toxic doses are left out.

In the experiment the test system is BDF1 mice, P388 leukemia ip, median survival T/C. Briefly: NCI In Vivo Anticancer Drug Screen. Data for tumor model P388 Leukemia (intraperitoneal) in B6D2F1 (BDF1) mice. The note with it: endpoint: median survival time, higher = longer survival. In short, it runs like this: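 Each value expresses how treatment altered survival: treated-mouse outcome over vehicle-mouse outcome, both groups bearing the transplanted tumour.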

Where [1] appears, read: dose: 100.0 mg/kg/injection, schedule: Q04DX003 (ip), vehicle: saline.
Setting [2] is: dose: 200.0 mg/kg/injection, schedule: Q04DX003 (ip), vehicle: saline.
Setting [3] is: dose: 400.0 mg/kg/injection, schedule: Q04DX003 (ip), vehicle: saline.
[4] abbreviates: dose: 25.0 mg/kg/injection, schedule: Q01DX009 (ip), vehicle: saline.
The mark [5] stands for this setting: dose: 50.0 mg/kg/injection, schedule: Q01DX009 (ip), vehicle: saline.
[6] abbreviates: dose: 12.5 mg/kg/injection, schedule: Q01DX009 (ip), vehicle: saline.
The mark [7] stands for this setting: dose: 100.0 mg/kg/injection, schedule: Q01DX009 (ip), vehicle: saline.

On to `CCC[CH2][Sn]1([CH2]CCC)[O]OC2(CCCCC2)[O]1`, for which the T/C (dose: 1.25 mg/kg/injection, schedule: Q01DX009 (ip), vehicle: Klucel (hydroxypropylcellulose) (HPC)) is 115 % of control; the T/C (dose: 1.57 mg/kg/injection, schedule: Q04DX003 (ip), vehicle: saline sonified) is 122 % of control; the T/C (dose: 3.13 mg/kg/injection, schedule: Q04DX003 (ip), vehicle: saline sonified) is 116 % of control; the T/C (dose: 5.0 mg/kg/injection, schedule: Q01DX009 (ip), vehicle: Klucel (hydroxypropylcellulose) (HPC)) is 115 % of control.
As for `c1ccc2c(c1)Sc1cnccc1N2CC1CO1` (centres undefined), the T/C is, setting by setting: under setting [1], 104 % of control; under setting [2], 90 % of control; under setting [3], 95 % of control.
For `COc1cccc(/C=C/[N+](=O)[O-])c1`, the T/C was 108 % of control (dose: 15.0 mg/kg/injection, schedule: Q01DX009 (ip), vehicle: saline with Tween-80); 107 % of control (dose: 20.0 mg/kg/injection, schedule: Q01DX009 (ip), vehicle: Klucel (hydroxypropylcellulose) (HPC)); 115 % of control (dose: 30.0 mg/kg/injection, schedule: Q01DX009 (ip), vehicle: Klucel (hydroxypropylcellulose) (HPC)); 100 % of control (dose: 60.0 mg/kg/injection, schedule: Q01DX009 (ip), vehicle: saline with Tween-80).
Regarding `Cc1cc(NC(=O)NCc2ccc(N3C(N)=NC(N)=NC3(C)C)cc2)ccc1S(=O)(=O)F`, the T/C by setting is: (dose: 2.1 mg/kg/injection, schedule: Q01DX009 (ip), vehicle: saline with Tween-80) 108 % of control; (dose: 3.1 mg/kg/injection, schedule: Q01DX009 (ip), vehicle: saline with Tween-80) 113 % of control; (dose: 4.8 mg/kg/injection, schedule: Q01DX009 (ip), vehicle: saline) 123 % of control; under setting [4], 172 % of control; (dose: 45.0 mg/kg/injection, schedule: Q04DX003 (ip), vehicle: saline with Tween-80) 150 % of control; under setting [5], 209 % of control. The T/C runs as follows: (dose: 100.0 mg/kg/injection, schedule: Q04DX003 (ip), vehicle: alcohol) 115 % of control; (dose: 264.0 mg/kg/injection, schedule: Q04DX003 (ip), vehicle: saline) 195 % of control; (dose: 400.0 mg/kg/injection, schedule: Q04DX003 (ip), vehicle: alcohol) 155 % of control.
As to `CCCCC(C)(O)CC` (centres undefined), the T/C by setting is: (dose: 50.0 mg/kg/injection, schedule: Q01DX009 (ip), vehicle: saline with Tween-80) 109 % of control; (dose: 100.0 mg/kg/injection, schedule: Q01DX009 (ip), vehicle: saline with Tween-80) 118 % of control; (dose: 100.0 mg/kg/injection, schedule: Q04DX003 (ip), vehicle: saline with Tween-80) 104 % of control; (dose: 200.0 mg/kg/injection, schedule: Q01DX009 (ip), vehicle: saline with Tween-80) 100 % of control; (dose: 200.0 mg/kg/injection, schedule: Q04DX003 (ip), vehicle: saline with Tween-80) 104 % of control.
Regarding `COC12C(COC(N)=O)C3=C(C(=O)C(C)=C(N4CC4)C3=O)N1CC1NC12` (centres undefined), the T/C runs as follows: (dose: 0.21 mg/kg/injection, schedule: Q04DX003 (ip), vehicle: saline with Tween-80) 235 % of control; (dose: 0.33 mg/kg/injection, schedule: Q04DX003 (ip), vehicle: saline with Tween-80) 200 % of control; (dose: 0.5 mg/kg/injection, schedule: Q04DX003 (ip), vehicle: saline with Tween-80) 190 % of control; (dose: 0.75 mg/kg/injection, schedule: Q04DX003 (ip), vehicle: saline with Tween-80) 255 % of control.
Take `COc1cc(C=Nc2cccc(F)c2)ccc1N(CCCl)CCCl`: the T/C runs as follows: (dose: 1.25 mg/kg/injection, schedule: Q01DX009 (ip), vehicle: other) 180 % of control; (dose: 2.5 mg/kg/injection, schedule: Q01DX009 (ip), vehicle: other) 195 % of control; (dose: 3.13 mg/kg/injection, schedule: Q01DX009 (ip), vehicle: other) 168 % of control; (dose: 5.0 mg/kg/injection, schedule: Q01DX009 (ip), vehicle: other) 280 % of control; (dose: 6.25 mg/kg/injection, schedule: Q01DX009 (ip), vehicle: other) 181 % of control; (dose: 12.5 mg/kg/injection, schedule: Q01DX009 (ip), vehicle: other) 95 % of control. In addition, the T/C was 95 % of control (dose: 25.0 mg/kg/injection, schedule: Q04DX003 (ip), vehicle: saline sonified); 100 % of control (dose: 50.0 mg/kg/injection, schedule: Q04DX003 (ip), vehicle: saline sonified); 195 % of control (dose: 100.0 mg/kg/injection, schedule: Q04DX003 (ip), vehicle: saline sonified).
As for `CN(C)CCCN1c2ccccc2Sc2ccc(C(F)(F)F)cc21`, the T/C was 100 % of control (dose: 6.25 mg/kg/injection, schedule: Q01DX009 (ip), vehicle: saline); 108 % of control (dose: 6.25 mg/kg/injection, schedule: Q04DX003 (ip), vehicle: saline with Tween-80); 118 % of control (dose: 8.9 mg/kg/injection, schedule: Q01DX009 (ip), vehicle: saline); 110 % of control (dose: 9.37 mg/kg/injection, schedule: Q01DX009 (ip), vehicle: saline); 113 % of control (dose: 12.5 mg/kg/injection, schedule: Q04DX003 (ip), vehicle: saline with Tween-80); 108 % of control (dose: 12.5 mg/kg/injection, schedule: Q04DX003 (ip), vehicle: saline). The T/C reads like this: (dose: 13.4 mg/kg/injection, schedule: Q01DX009 (ip), vehicle: saline) 109 % of control; (dose: 16.5 mg/kg/injection, schedule: Q01DX009 (ip), vehicle: saline) 122 % of control; (dose: 20.0 mg/kg/injection, schedule: Q01DX009 (ip), vehicle: saline) 118 % of control; under setting [4], 100 % of control; (dose: 25.0 mg/kg/injection, schedule: Q04DX003 (ip), vehicle: saline with Tween-80) 113 % of control; (dose: 25.0 mg/kg/injection, schedule: Q04DX003 (ip), vehicle: saline) 109 % of control. For the same compound, the T/C was 100 % of control (dose: 37.5 mg/kg/injection, schedule: Q01DX009 (ip), vehicle: saline); 161 % of control (dose: 37.5 mg/kg/injection, schedule: Q04DX003 (ip), vehicle: saline); 95 % of control under setting [5].
As for `CCN(CC)CC1CO1` (centres undefined), the T/C under setting [6] is 100 % of control.
As to `CCCCCCC(=O)/C=C/c1ccc(Cl)c(Cl)c1`, the T/C by setting is: (dose: 75.0 mg/kg/injection, schedule: Q01DX009 (ip), vehicle: saline with Tween-80) 106 % of control; (dose: 150.0 mg/kg/injection, schedule: Q01DX009 (ip), vehicle: saline with Tween-80) 98 % of control; (dose: 300.0 mg/kg/injection, schedule: Q01DX009 (ip), vehicle: saline with Tween-80) 93 % of control.
In the case of `C/C1=C/CCCCCC1`, the T/C runs as follows: under setting [7], 104 % of control; under setting [1], 95 % of control; (dose: 200.0 mg/kg/injection, schedule: Q01DX009 (ip), vehicle: saline) 90 % of control; under setting [2], 100 % of control; (dose: 400.0 mg/kg/injection, schedule: Q01DX009 (ip), vehicle: saline) 113 % of control; under setting [3], 95 % of control.
Regarding `Nc1ccccc1SC1CC(=O)N(c2cccc3ccccc23)C1=O` (centres undefined), the T/C is 118 % of control (dose: 100.0 mg/kg/injection, schedule: Q01DX009 (ip), vehicle: Klucel (hydroxypropylcellulose) (HPC)); 104 % of control (dose: 100.0 mg/kg/injection, schedule: Q04DX003 (ip), vehicle: Klucel (hydroxypropylcellulose) (HPC)); 118 % of control (dose: 200.0 mg/kg/injection, schedule: Q01DX009 (ip), vehicle: Klucel (hydroxypropylcellulose) (HPC)); 100 % of control (dose: 200.0 mg/kg/injection, schedule: Q04DX003 (ip), vehicle: Klucel (hydroxypropylcellulose) (HPC)); 100 % of control (dose: 400.0 mg/kg/injection, schedule: Q01DX009 (ip), vehicle: Klucel (hydroxypropylcellulose) (HPC)); 90 % of control (dose: 400.0 mg/kg/injection, schedule: Q04DX003 (ip), vehicle: Klucel (hydroxypropylcellulose) (HPC)).
As for `CCCCCCCCCCCC[N+]1([O-])CCCC1`, the T/C reads like this: under setting [6], 100 % of control; under setting [4], 93 % of control; under setting [5], 87 % of control.
Consider `C=CCC(CC)(C(=O)O)C(=O)O`, for which the T/C by setting is: under setting [5], 100 % of control; under setting [7], 90 % of control.
